Results from patent publication US5574026A, “Methods for inhibiting angiogenesis proliferation of endothelial or tumor cells and tumor growth” (American Cyanamid Company, priority 1994, dated 1996).
Where a name gives a salt, the structure may show the parent alone. Read-outs that look alike come from different tables or passages of the source.

Key:
angiogenesis = conditions: Brem et al; in words; cited from earlier work
[1] = system: Adult Bovine Aortic Endothelial (ABAE) cell line; assay: Antiproliferative activity in Adult Bovine Aortic Endothelial (ABAE) cell line, PROTOCOL 3 (4 days, cell count); assay type: cell-based; conditions: for IC50: Bos taurus, 96 h
Description: (§1) The antiproliferative activity of the compounds of Formula I in an Adult Bovine Aortic Endothelial (ABAE) cell line and in Human Tumor cells lines is evaluated in three similar assays that measure growth inhibition. The assays are identified as follows:
(§2) PROTOCOLS 1, 2, and 3 are described in greater detail hereinbelow. In general, according to PROTOCOLS 1 and 2, the target ABAE and/or Human Tumor cells are exposed to the compounds of Formula I for 48 hours. PROTOCOL 3 exposes ABAE cells to the compounds for 4 days. A detailed description of the Protocols is as follows:
Antiproliferative Activity in Adult Bovine Aortic Endothelial (ABAE) Cell Line
ABAE cells are grown in DMEM media (Mediatech, Washington, D.C.) supplemented with 10% calf serum (Hyclone). ABAE cells are plated in 24-well dishes at 8,000 cells/well, followed by the addition of increasing concentrations of 7-halogen-9-[hydrogen or [(substituted glycyl)amido]]-6-demethyl-6-deoxytetracycline. After four days, the cells are detached and counted. […] The growth inhibition (I) as % of control is calculated as follows: [formula] wherein: Nc is the number of cells in untreated wells;
Nt is the number of cells in treated wells;
No is the number of plated cells.
IC50 of growth inhibition is determined from the sets of I values plotted by Kaleidograph software (Abelbeck Software).
Table 1 presents the results depicting the antiproliferative activity of the compounds of Formula I against an ABAE cell line, as evaluated by PROTOCOL 2 and PROTOCOL 3. The results are presented in terms of IC50 and are as follows.

A2780/DDP = assay: Antiproliferative activity in human tumor cell lines, PROTOCOL 1 and PROTOCOL 2; assay type: cell-based
Description: (§3) The assays are identified as follows: PROTOCOLS 1, 2, and 3 are described in greater detail hereinbelow. In general, according to PROTOCOLS 1 and 2, the target ABAE and/or Human Tumor cells are exposed to the compounds of Formula I for 48 hours. PROTOCOL 3 exposes ABAE cells to the compounds for 4 days. A detailed description of the Protocols is as follows: Antiproliferative Activity in Human Tumor Cell Lines The antiproliferative activity of the compounds of Formula I of the present invention is evaluated in a panel comprised of human tumor cell lines. […] Cultures are renewed after 20 passages with cells from a fresh stock of batch-frozen early passage cells. Cell lines are routinely checked for mycoplasma contamination (Genprobe). In a laminar flow hood, cells (1-5×10^4) are plated into 96-well microtiter plates in a volume of 0.1 ml/well with a bulk microtiter dispenser (Denley). […] Compounds are added using a Tomtec dispenser which simultaneously dispenses from one 96-well plate, containing the drug dilutions, to the plates containing the cells. After two days of continuous drug exposure, 50% cold trichloroacetic acid (TCA) is added to 10% final concentration to fix the cells, and after 60 minutes at 4° C., the TCA is aspirated and the plates are washed 5 times with deionized water using a microtiter plate washer. […] A 0.4% solution of the dye, sulforhodamine B, in glacial acetic acid is added to the plates, and the plates are washed 5 times with 1% glacial acetic acid using the automatic plate washed. The bound stain is solubilized with 0.1 ml of 10 mMTris base. The optical densities are read from an automatic spectrophotometric plate reader (Dynatech) directly to a main frame computer (VAX 8600). Positive controls, that include standard chemotherapeutic drugs (i.e., adriamycin, cisplatin, etc.), are included in every experiment. Background optical density measurements (complete media--cells, and complete media+drug-cells) are automatically subtracted from the appropriate control and test wells. Mean values and standard errors are determined from duplicate wells. A measure is also made of the optical density at time when the drugs are added. The number of cells after treatment (P), as % of control, is calculated for every concentration of drug, as follows: [formula] wherein: T is optical density measurement for treated cells after 48 hours; C is optical density measurement for untreated cells after 48 hours; Co is optical density measurement for cells at the time of drug addition. IC50 of Growth inhibition is calculated from the sets of P values using the RS-1 data package (BBN Software). Antiproliferative Activity in Human Tumor and Adult Bovine Aortic Endothelial Cell Lines (ABAE) The antiproliferative activity of the compounds of Formula I is evaluated in a panel comprised of human tumor cell lines as listed in Protocol 1 as well as an adult bovine aortic endothelial cell line (ABAE). This assay is a modification of PROTOCOL 1.

A2780S = assay: as above; assay type: cell-based
Description: as §3

HTB 161 = assay: as above; assay type: cell-based; conditions: HTB 161, 48 hours
Description: as §3

CACO2 = assay: as above; assay type: cell-based; conditions: Caco-2, colon tumor cell line CACO2, 48 hours, read-out: IC50
Description: as §1, §2
(§4) Antiproliferative Activity in Human Tumor Cell Lines
(§5) The antiproliferative activity of the compounds of Formula I of the present invention is evaluated in a panel comprised of human tumor cell lines. The human tumor cell lines are from
(§6) 2) Colon tumors: MIP, CACO2, and SW620.
(§7) All cell lines are maintained in log phase in RPMI 1640 media, supplemented with 5% fetal calf serum, penicillin/streptomycin and 2 mM L-glutamine. Cultures are renewed after 20 passages with cells from a fresh stock of batch-frozen early passage cells. Cell lines are routinely checked for mycoplasma contamination (Genprobe). In a laminar flow hood, cells (1-5×10^4) are plated into 96-well microtiter plates in a volume of 0.1 ml/well with a bulk microtiter dispenser (Denley). […] At this concentration, dimethylsulfoxide has no effect on cell growth. Compounds are added using a Tomtec dispenser which simultaneously dispenses from one 96-well plate, containing the drug dilutions, to the plates containing the cells. After two days of continuous drug exposure, 50% cold trichloroacetic acid (TCA) is added to 10% final concentration to fix the cells, and after 60 minutes at 4° C., the TCA is aspirated and the plates are washed 5 times with deionized water using a microtiter plate washer. The number of cells on the plate are quantitated using a protein dye-binding assay (Monks et al., 1991). A 0.4% solution of the dye, sulforhodamine B, in […] is added to the plates, and the plates are washed 5 times with 1% glacial acetic acid using the automatic plate washed. The bound stain is solubilized with 0.1 ml of 10 mMTris base. The optical densities are read from an automatic spectrophotometric plate reader (Dynatech) directly to a main frame computer (VAX 8600).
(§8) Positive controls, that include standard chemotherapeutic drugs (i.e., adriamycin, cisplatin, etc.), are included in every experiment.
(§9) Background optical density measurements (complete media--cells, and complete media+drug-cells) are automatically subtracted from the appropriate control and test wells. Mean values and standard errors are determined from duplicate wells. A measure is also made of the optical density at time when the drugs are added. The number of cells after treatment (P), as % of control, is calculated for every concentration of drug, as follows: [formula] wherein: T is optical density measurement for treated cells after 48 hours;
(§10) C is optical density measurement for untreated cells after 48 hours;
(§11) Co is optical density measurement for cells at the time of drug addition.
(§12) IC50 of Growth inhibition is calculated from the sets of P values using the RS-1 data package (BBN Software).
(§13) Antiproliferative Activity in Human Tumor and Adult Bovine Aortic Endothelial Cell Lines (ABAE)
(§14) The antiproliferative activity of the compounds of Formula I is evaluated in a panel comprised of human tumor cell lines as listed in Protocol 1 as well as an adult bovine aortic endothelial cell line (ABAE). This assay is a modification of PROTOCOL 1. The modifications include:
(§15) 1) each concentration for each compound is tested in a single well;
(§16) 2) compounds are tested at 20, 4, 0.8, 0.16 microgram/ml and additionally in some experiments at 100 and 0.32 microgram/ml;
(§17) 3) samples are pipetted into a 96-well plate for each of the cell lines by a Beckman Biomek 1000 SL robot; […]

MIP = assay: as above; assay type: cell-based; conditions: colon tumor cell line MIP, 48 hours
Description: as §1, §2, §4, §5, §6, §7, §8, §9, §10, §11, §12, §13, §14, §15, §16, §17

SW620 = assay: as above; assay type: cell-based
Description: as §1, §2, §4, §5, §6, §7, §8, §9, §10, §11, §12, §13, §14, §15, §16, §17

Human Tumor cell lines = assay: Antiproliferative activity in panel of human tumor cell lines (average / panel as a whole), PROTOCOL 1 and PROTOCOL 2; assay type: cell-based; conditions: Homo sapiens; average over the tumor cell lines tested
Description: as §1, §2, §4, §5, §6, §7, §8, §9, §10, §11, §12, §13, §14, §15, §16, §17

[2] = ovarian tumor cell line A2780S, 48 hours, read-out: IC50
[3] = SW-620, colon tumor cell line SW620, 48 hours, read-out: IC50

SMILES | inhibition of angiogenesis (angiogenesis) | IC50 (A2780S; [2]) [µg/mL] | IC50 (HTB 161) [µg/mL] | IC50 (MIP) [µg/mL] | IC50 (SW620; [3]) [µg/mL] | IC50 (Human Tumor cell lines) [µg/mL] | other results
CN(C)[C@@H]1C(O)=C(C(N)=O)C(=O)[C@@]2(O)C(O)=C3C(=O)c4c(O)ccc(Cl)c4[C@@](C)(O)[C@H]3C[C@@H]12 [Chlortetracycline] | useful as inhibitors of angiogenesis |  |  |  |  |  | 
CN(C)[C@@H]1C(O)=C(C(N)=O)C(=O)[C@@]2(O)C(O)=C3C(=O)c4c(O)c(NC(=O)CN5CCCCC5)cc(I)c4CC3CC12 (stereo partly drawn) [Example 6, [7S-(7α,10aα)]-N-9-[(Aminocarbonyl)-7-(dimethylamino)-5,5a,6,6a,7,10,10a,12-octahydro-1,8,10a,11-tetrahydroxy-4-iodo-10,12-dioxo-2-naphthacenyl]-1-piperidine-acetamide dihydrochloride] |  | 0.2 | 0.2 | 0.6 | 0.4 | 1 | IC50 ([1]; ABAE cells, PROTOCOL 3, 4 days, read-out: IC50 PROTOCOL 3): 2.5 µg/mL; IC50 ([1]; FIG. 1, ABAE, 4 day assay (Protocol 3), read-out: inhibits 50% of cell growth at): ~2 µg/mL; activity upon incubation with cells ([1]; FIG. 1, 4 day assay (Protocol 3), in words): retains its activity; activity in preventing the proliferation of ABAE cells compared to Minocycline ([1]; Table 1, in words): increased activity; IC50 (A2780/DDP; ovarian tumor cell line /DDP, 48 hours, read-out: IC50): 0.8 µg/mL; IC50 (CACO2): 4 µg/mL
CN(C)[C@@H]1C(O)=C(C(N)=O)C(=O)[C@@]2(O)C(O)=C3C(=O)c4c(O)ccc(Cl)c4[C@@H](O)[C@H]3C[C@@H]12 [Demeclocycline] | useful as inhibitors of angiogenesis |  |  |  |  |  | 
CN(C)[C@@H]1C(O)=C(C(N)=O)C(=O)[C@@]2(O)C(O)=C3C(=O)c4c(O)c(NC(=O)CNC5CCCC5)cc(I)c4CC3CC12 (stereo partly drawn) [Example 7, [4S-(4',12aα)]-9-[[(Cyclopentylamino)acetyl]amino]-4-(dimethylamino)-1,4,4a,5,5a,6,11,12a-octahydro-3,10,12,12a-tetrahydroxy-7-iodo-1,11-dioxo-2-maphthacenecarboxamide dihydrochloride] |  | 2 | 1 |  | 3 | 2 | 
CN(C)[C@@H]1C(O)=C(C(N)=O)C(=O)[C@@]2(O)C(O)=C3C(=O)c4c(O)c(NC(=O)CN5CCCC5)cc(I)c4CC3CC12 (stereo partly drawn) [Example 5, [7S-(7α,10aα)]-N-9-[(Aminocarbonyl)-7-(dimethylamino)-5,5a,6,6a,7,10,10a,12-octahydro-1,8,10a,11-tetrahydroxy-4-iodo-10,12-dioxo-2-naphthacenyl]-1-pyrrolidineacetamide dihydrochloride] |  |  | 3 | 4 |  | 3.8 | IC50 (A2780/DDP; 48 h): 4 µg/mL; IC50 (A2780S; A2780S, 48 h): 4 µg/mL; IC50 (SW620; SW-620, 48 h): 4 µg/mL
CN(C)[C@@H]1C(O)=C(C(=O)NCNCCCC[C@H](N)C(=O)O)C(=O)[C@@]2(O)C(O)=C3C(=O)c4c(O)cccc4[C@@](C)(O)[C@H]3C[C@@H]12 [Lymecycline] | useful as inhibitors of angiogenesis |  |  |  |  |  | 
